Read-outs that look alike come from different tables or passages of the source.
How the values were obtained:
[1] = Thermal stability test in synthetic North Sea water; assay type: physicochemical; conditions: 1% active acid in synthetic North Sea water, pH 5.5, 140 °C, one week, 31P NMR; percentage by weight
Procedure: The test is carried out as follows: an aqueous solution containing 20% of scale inhibitor active acid at pH 5.5 (solution 1) is prepared. After that, synthetic North Sea water having a pH of 5.5 (solution 2) is prepared. A 1% scale inhibitor active acid sample is prepared by mixing 1 g of solution 1 with 19 g of solution 2. The so prepared sample is placed in a closed pressure resistant tube and kept in an oven at minimum 140 °C for one week. Finally, after one week, the sample is analyzed by means of 31P NMR spectroscopy.

[2] = after 28 days; 2.0 ppm of pure active solid or 5.5 ppm as commercial product; previous study; cited from earlier work
[3] = Barium sulphate scale inhibition; conditions: minimum phosphonate concentration to inhibit 100% BaSO4 scale; 50/50 North Sea water/Formation water, pH 6, 22 hours at 90 °C, ICP-MS
Procedure: To evaluate the efficiency of both scale inhibitors according to the present invention and comparative ones in preventing barium scale inhibition in oil field scaling conditions, the present test is carried out determining the amount of BaSO4 that has precipitated after 22 hours at 90 °C, in a 50/50 mixture of synthetic North Sea water
The amount of soluble Ba ions is determined by inductively coupled plasma mass spectrometry (ICP-MS).
The present test is carried out as follows: • synthetic North Sea and Formation waters are prepared at pH 6. These water solutions are preheated at 90 °C before starting the test. An acetic acid/sodium acetate buffer is prepared and added to the North Sea water in order to give the required pH; • - 15, 30, 50, 70 and 100 ppm of scale inhibitor active phosphonic acid is added to a glass bottle; • - 50 ml of North Sea water is added to this glass bottle while stirring. 50 ml of Formation water is then added to this glass bottle; • - one blank solution is prepared, by mixing 50 ml of North Sea water with 50 ml of Formation water; • - sample bottles were put in an oven for 22 hours at 90 °C; • - after 22 hours, 3 ml of each test solution was taken from the surface, was filtered through a 0.45 µm Millipore filter and added to a stabilizing solution.
The stabilized samples were analyzed by ICP-MS for Ba.
Ba scale inhibition stands for the minimum phosphonate concentration to inhibit 100% BaSO4 scale.
Note that the 100% phosphonate efficiencies for BaSO4 scale inhibition are calculated as follows: % Scale inhibition = (V1−V0/V2−V0) × 100 [formula] wherein V0 = ppm Ba found in the blank solution; V1 = ppm Ba found in the solution with the scale inhibitor; and V2 = ppm Ba present in the Formation water.

[4] = Brine and sea water compatibility test (Ca tolerance); assay type: physicochemical; conditions: synthetic North Sea water pH 5.5, 90 °C, 24 hours
Procedure: Scale inhibitors, especially if they have anionic moieties, may form complexes and precipitate with hardness salts, for example calcium, before they can fulfill their dispersing and chelating functions. Compatibility tests are carried out to check if complexation happens or not. If compatibility is poor, not only precipitation occurs, but also overall scale formation becomes faster.

[5] = Biodegradability, OECD 306 closed bottle marine test; conditions: after 14 days; 2 ppm of pure active solid
Procedure: Biodegradation tests are performed using the standard "closed bottle" marine test methods in accordance with OECD Guidelines 306. OECD306 is a test that measure biodegradation indirectly through the determination of the amount of dissolved oxygen in the medium. The measurement obtained are used to estimate the biodegradability (BOD) during the process.
The measured value of the BOD need to be corrected by dividing either with an experimental value of COD or a ThOD and multiply by 100% to get the biodegradability value.
OECD306 closed bottle test for was performed with a similar test set-up.

[6] = Calcium carbonate scale inhibition; conditions: 2 ppm active phosphonic acid; 240 ppm Ca2+, 732 ppm HCO3-, pH 8.7 buffer, 50 °C, 22 hours
Procedure: To evaluate the efficiency of both scale inhibitors according to the present invention and comparative ones in preventing calcium carbonate scale in industrial water treatment conditions, the present test is carried out determining the amount of CaCO3 that has precipitated after 22 hours at 50 °C in a 50/50 mixture of cationic and anionic waters with the test phosphonates at three different concentrations. The amount of soluble Ca ions is analyzed by titration. […]
Put the sample bottles in an oven for 22 hours at 50 °C. […] The phosphonate efficiency as CaCO3 scale inhibition is then calculated using the equation: % CaCO3 inhibition = (Cat−Cab) × 100)÷(Cai−Cab) [formula] wherein Cat = calcium remaining in solution of the t sample, where the dilution with HCl has been corrected (Cat=(Caf)×Wta/Wtsam); Cab = Calcium remaining in the blank (i.e. glass bottle wherein no phosphonate was added; under these condition corresponds to minimum of 80% of calcium precipitated as CacO3); and Cai = Total calcium present in a reference t sample (i.e. a sample t in which the hardness brine has simply been diluted with water to get the same final volume).

Structure (SMILES)	Decomposition (%) [1] [%]	Biodegradability [2] [%]	100% Ba scale inhibition [3]	Ca Tolerance , visual observation ([4]; 100 ppm active acid)	Ca Tolerance , visual observation ([4]; 1000 ppm active acid)	Ca Tolerance , visual observation ([4]; 10000 ppm active acid)	Ca Tolerance , visual observation ([4]; 50000 ppm active acid)	Biodegradability [5] [%]	% CaCO3 inhibition [6] [% @ 2 ppm]
O=P(O)(O)CN(CP(=O)(O)O)CP(=O)(O)O [ATMP, aminotris(methylenephosphonic acid)]	12.5								
O=C(O)CCCCCN(CP(=O)(O)O)CP(=O)(O)O		77.15	(no inhibition on Ba)						
O=P(O)(O)CN(CCN(CP(=O)(O)O)CP(=O)(O)O)CCN(CP(=O)(O)O)CP(=O)(O)O [DTMPA, [[(phosphonomethyl)imino]bis [2,1-ethanediylnitrilobis (methylene)]] tetrakis-phosphonic acid]	23.6		15 ppm	clear	turbid	turbid	clear		
O=C(O)CCCCCNC(P(=O)(O)O)P(=O)(O)O [Compound of Formula II, 6-((diphosphonomethyl)amino)hexanoic acid]	3.0		50 ppm	clear	turbid	turbid	clear	31.5	94
CC(O)(P(=O)(O)O)P(=O)(O)O [HEDP, 1-hydroxy ethylidene-1,1-diphosphonic acid]	2.3		30ppm	clear	turbid	turbid	clear		
O=P(O)(O)CN(CCO)CP(=O)(O)O [HEMPA, hydroxyethylamino-di(methylene phosphoric acid)]	19.0								

— patent EP3860956B1, “PROCESS FOR MANUFACTURING N-ALKYL-DIPHOSPHONATE AMINO AMINOACIDS” (Italmatch Chemicals S.p.A., priority 2018, dated 2020)
